In the PolyMetriX glass transition set:
± gives the standard deviation of the reports.

First: *c1ccc(Nc2ccc(Nc3ccc(S(*)(=O)=O)cc3)cc2)cc1 (repeat unit)
Second: *Oc1ccc(Nc2ccc(/N=N/c3ccc(Nc4ccc(*)cc4)cc3)cc2)cc1 (repeat unit)
The glass transition temperature of the first is lower: 145.00 °C for the first, 169.00 °C for the second.

First: *CCCCCOC(=O)c1ccccc1C(=O)[O][Pb][O]C(=O)c1ccccc1C(=O)OCCCCCOC(=O)NCCCCCCNC(=O)O* (repeat unit)
Second: *CCCCCCOC(=O)C(CCCCP(=O)(OCC)OCC)C(=O)OCCCCCCOc1ccc(-n2on2-c2ccc(O*)cc2)cc1 (repeat unit)
The glass transition temperature of the first is lower: -19.20 °C for the first, 4.00 °C for the second.

First: *CCOCCOCCOCCOCCOCCOC(=O)c1cccc(C(=O)O*)c1 (repeat unit)
Second: *c1ccc(NC(=O)c2ccc(OCCOCCOCCOCCOc3ccc(C(=O)Nc4ccc5[nH]c(*)nc5c4)cc3)cc2)cc1 (repeat unit)
The glass transition temperature of the first is lower: -23.50 °C for the first, 140.00 °C for the second.

First: *CC(*)c1ccccc1COCCC (repeat unit)
Second: *CC(*)OC(=O)CCCC(=O)c1ccccc1 (repeat unit)
The glass transition temperature of the first is higher: 97.00 °C for the first, 45.00 °C for the second.

Compared with *CC(*)C(=O)Oc1cccc(C(=O)OCC)c1 (repeat unit), *CC(*)(C)C(=O)OCC(=O)c1ccccc1 (repeat unit) is higher in glass transition temperature: 24.00 °C for the first, 92.50 °C for the second.

Going from *CC(*)C(=O)OCC(C)(C)C (repeat unit) to *CC(*)C(=O)OCCSCCCC#N (repeat unit), the glass transition temperature falls from 22.00 °C to -58.00 °C.

Compared with *c1ccc(NC(=O)Nc2ccc(NC(=O)Nc3ccc(-c4nc(-c5ccc([N+](=O)[O-])cc5)[nH]c4*)cc3)cc2)cc1 (repeat unit), *Nc1ccc(-c2ccc(NC(=O)c3cc(C(*)=O)cc(S(=O)(=O)c4ccccc4)c3)cc2)cc1 (repeat unit) is higher in glass transition temperature: 292.00 °C for the first, 319.00 °C for the second.

Compared with *c1ccc(Oc2ccc(Oc3ccc(-n4c(=O)c5cc6c(=O)n(*)c(=O)c6cc5c4=O)cc3)cc2)c(C(F)(F)F)c1 (repeat unit), *c1ccc(Oc2ccc(-n3c(=O)c4c(Oc5ccc(OC)cc5)c5c(=O)n(*)c(=O)c5c(Oc5ccc(OC)cc5)c4c3=O)cc2)cc1 (repeat unit) is higher in glass transition temperature: 272.20 °C for the first, 303.50 °C for the second.

First: *CC(*)c1ccc(-c2ccc3c(c2)C(CCCCCC)(CCCCCC)c2cc(-c4ccc5c(c4)C(CCCCCC)(CCCCCC)c4ccccc4-5)ccc2-3)cc1 (repeat unit)
Second: *c1ccc(C(=O)OCCCCCCCCCCOc2ccc(/C=C/C(=O)/C=C/c3ccc(OCCCCCCCCCCOC(=O)c4ccc(-c5nnc(*)o5)cc4)cc3)cc2)cc1 (repeat unit)
The glass transition temperature of the first is higher: 78.60 °C for the first, 58.00 °C for the second.

Compared with *c1ccc(Oc2cc(C(C)(C)C)ccc2Oc2ccc(N3C(=O)c4ccc(-c5ccc6c(c5)C(=O)N(*)C6=O)cc4C3=O)cc2)cc1 (repeat unit), *c1ccc(-c2ccc(N3C(=O)c4ccc(Oc5ccc(Oc6ccc7c(c6)C(=O)N(*)C7=O)cc5)cc4C3=O)cc2)cc1 (repeat unit) is higher in glass transition temperature: 257.00 °C for the first, 266.00 °C for the second.

First: *CC#CCOC(=O)CCCCCCCCCCC(=O)O* (repeat unit)
Second: *CCOC(=O)CCCCCC(=O)O* (repeat unit)
The glass transition temperature of the first is higher: -27.00 °C for the first, -46.00 °C for the second.

First: *CCC(=O)O* (repeat unit)
Second: *CCN(*)C(=O)CCCC (repeat unit)
The glass transition temperature of the first is lower: -24.00 °C for the first, 13.00 °C for the second.

Compared with *Oc1ccc(Oc2ccc(/C=N/CCCC/N=C/c3ccc(*)cc3)cc2)cc1 (repeat unit), *Oc1ccc(Oc2ccc(Oc3ccc(S(=O)(=O)c4ccc(*)cc4)cc3)cc2)cc1 (repeat unit) is higher in glass transition temperature: 105.00 °C for the first, 192.00 °C for the second.

First: *c1ccc(Oc2ccc(-c3cc(-c4ccccc4)c4cc5nc(*)cc(-c6ccccc6)c5cc4n3)cc2)cc1 (repeat unit)
Second: *c1ccc(Oc2ccc(C3(c4ccc(Oc5ccc(-c6nc(-c7ccccn7)nnc6*)cc5)cc4)c4ccccc4-c4ccccc43)cc2)cc1 (repeat unit)
The glass transition temperature of the first is higher: 365.00 °C for the first, 277.00 °C for the second.

Compared with *c1ccc(Oc2cccc(Oc3ccc(N4C(=O)c5ccc(Oc6cccc(Oc7ccc8c(c7)C(=O)N(*)C8=O)c6)cc5C4=O)cc3)c2)cc1 (repeat unit), *C(=O)c1ccc2c(c1)C(=O)N(c1ccc(Oc3ccc(C(=O)c4ccc(C(=O)c5ccc(Oc6ccc(N7C(=O)c8ccc(*)cc8C7=O)cc6)cc5)cc4)cc3)cc1)C2=O (repeat unit) is higher in glass transition temperature: 188.00 °C for the first, 233.00 °C for the second.

First: *CCN(CCOC(=O)Nc1ccc(C)c(NC(=O)O*)c1)c1ccc(/N=N/c2ccc([N+](=O)[O-])cc2C)cc1 (repeat unit)
Second: *Nc1ccc(NC(=O)c2cc(-c3ccc(C(=O)OCC)c(C(*)=O)c3)ccc2C(=O)OCC)cc1 (repeat unit)
The glass transition temperature of the first is lower: 137.00 °C for the first, 231.70 °C for the second.

First: *Cc1ccc(CSSS*)cc1 (repeat unit)
Second: *Oc1ccc(C(C)(C)c2ccc(OC(=O)Oc3ccc(Cc4ccc(OC(*)=O)cc4)cc3)cc2)cc1 (repeat unit)
The glass transition temperature of the first is lower: 8.00 °C for the first, 107.80 °C for the second.

Compared with *Oc1ccc(S(=O)(=O)c2cccc3c(S(=O)(=O)c4ccc(Oc5c(C)cc(-c6cc(C)c(*)c(C)c6)cc5C)cc4)cccc23)cc1 (repeat unit), *C(=O)c1ccc2c(c1)C(=O)N(c1cc(Oc3c(C)cc(-c4cc(C)c(Oc5cc(N6C(=O)c7ccc(*)cc7C6=O)cc(C(F)(F)F)c5)c(C)c4)cc3C)cc(C(F)(F)F)c1)C2=O (repeat unit) is higher in glass transition temperature: 262.00 °C for the first, 265.40 °C for the second.

Going from *C(=O)Oc1ccc(C(C)(C)c2ccc(OC(=O)c3ccc4c(c3)C(=O)N(c3ccc(O)c(N5C(=O)c6ccc(*)cc6C5=O)c3)C4=O)cc2)cc1 (repeat unit) to *c1ccc2c(c1)C(=O)N(c1c(C)cc(-c3cc(C)c(N4C(=O)c5ccc(C(*)(C(F)(F)F)C(F)(F)F)cc5C4=O)c4ccccc34)c3ccccc13)C2=O (repeat unit), the glass transition temperature rises from 225.00 °C to 403.00 °C.

Compared with *CC(*)(CC(=O)OCCCCCC)C(=O)OCCCCCC (repeat unit), *CC(*)(C)C(=O)OCCCCCCOc1ccc(C(=O)Oc2ccc(OCCCC)cc2)cc1 (repeat unit) is higher in glass transition temperature: -7.00 °C for the first, 49.00 °C for the second.

First: *CC(COc1ccc(C(C)(c2ccccc2)c2ccc(O*)cc2)cc1)OC(C)=O (repeat unit)
Second: *Oc1ccc(C(CC)(CC)c2ccc(OC(=O)c3ccc(C(*)=O)cc3)cc2)cc1 (repeat unit)
The glass transition temperature of the first is lower: 110.00 °C for the first, 180.00 °C for the second.

Compared with *CCOCCOP(=O)(/N=N/c1ccc(Oc2ccc(/N=N/P(=O)(O*)OC)cc2)cc1)OC (repeat unit), *CCOCCOP(=O)(/N=N/c1ccc(C(=O)c2ccc(/N=N/P(=O)(O*)OC)cc2)cc1)OC (repeat unit) is higher in glass transition temperature: 32.00 °C for the first, 33.00 °C for the second.

Compared with *C(F)(F)C1(F)C(F)(F)C(*)(F)C1(F)F (repeat unit), *Oc1c(Br)cc(*)cc1Br (repeat unit) is higher in glass transition temperature: 122.00 °C for the first, 196.00 °C for the second.

Compared with *c1ccc(Cc2ccc(N3C(=O)CC(Nc4ccc(N(c5ccc(NC6CC(=O)N(*)C6=O)cc5)c5ccc([N+](=O)[O-])cc5)cc4)C3=O)cc2)cc1 (repeat unit), *Oc1ccc(NC(=O)c2ccc([Si](c3ccccc3)(c3ccccc3)c3ccc(C(*)=O)cc3)cc2)cc1 (repeat unit) is lower in glass transition temperature: 276.00 °C for the first, 235.00 °C for the second.

Compared with *CCCCCCOc1ccc(NC(=O)c2cc(C(=O)Nc3ccc(O*)cc3)cc(C(C)(C)C)c2)cc1 (repeat unit), *Nc1ccc(NC(=O)c2ccc(NC(=O)CCCCCCCCCCCCC(=O)Nc3ccc(C(*)=O)cc3)cc2)cc1C(=O)OCCCCCCCCCCCCCCCCCC (repeat unit) is higher in glass transition temperature: 166.00 °C for the first, 191.00 °C for the second.

Molecule *c1ccc2c(c1)Sc1cc(-c3ccc(-c4ccc(*)s4)s3)ccc1N2CCCCCC (repeat unit) has a glass transition temperature of 140.00 °C.

remark: another data set of the same source

First: *Oc1ccc2c(c1)C(=O)N(c1ccc(Oc3ccc(Oc4ccc(N5C(=O)c6ccc(*)cc6C5=O)cc4)cc3C(C)(C)C)cc1)C2=O (repeat unit)
Second: *Oc1ccc2c(c1)C(=O)N(c1ccc(Oc3c(C)cc(Oc4ccc(N5C(=O)c6ccc(*)cc6C5=O)cc4)c(C)c3C)cc1)C2=O (repeat unit)
The glass transition temperature of the first is lower: 240.00 °C for the first, 261.00 °C for the second.

Going from *c1ccc(-c2ccc(N3C(=O)c4cc5c(cc4C3=O)C(c3ccccc3)(C(F)(F)F)c3cc4c(cc3O5)C(=O)N(*)C4=O)cc2OC(F)(F)F)c(OC(F)(F)F)c1 (repeat unit) to *c1ccc(-c2ccc(N3C(=O)c4cc5c(cc4C3=O)C(C(F)(F)F)(C(F)(F)F)c3cc4c(cc3O5)C(=O)N(*)C4=O)cc2OC(F)(F)F)c(OC(F)(F)F)c1 (repeat unit), the glass transition temperature falls from 400.00 °C to 375.00 °C.

Going from *c1ccc(-c2ccc(N3C(=O)c4cc5c(cc4C3=O)C(C(F)(F)F)(C(F)(F)F)c3cc4c(cc3O5)C(=O)N(*)C4=O)cc2C(F)(F)F)c(C(F)(F)F)c1 (repeat unit) to *c1ccc2c(c1)C(=O)N(c1ccc(-c3ccc(N4C(=O)c5ccc(C(*)(C(F)(F)F)C(F)(F)F)cc5C4=O)cc3I)c(I)c1)C2=O (repeat unit), the glass transition temperature falls from 420.00 °C to 319.00 °C.

Compared with *C1=C(Cl)C(=O)N(c2ccc(Cc3ccc(N4C(=O)C(Cl)=C(Oc5c(Cl)cc(C(C)(C)c6cc(Cl)c(*)c(Cl)c6)cc5Cl)C4=O)cc3)cc2)C1=O (repeat unit), *c1ccc2c(c1)C(=O)N(c1ccc(-c3ccc(N4C(=O)c5ccc(C(*)(C(F)(F)F)C(F)(F)F)cc5C4=O)cc3-c3ccc(C)cc3)c(-c3ccc(C)cc3)c1)C2=O (repeat unit) is higher in glass transition temperature: 200.00 °C for the first, 286.00 °C for the second.

First: *C(=O)Oc1ccc2ccccc2c1-c1c(OC(=O)c2ccc3c(c2)C(=O)N(c2ccc(Oc4ccc(N5C(=O)c6ccc(*)cc6C5=O)cc4)cc2)C3=O)ccc2ccccc12 (repeat unit)
Second: *c1cccc2c1C(=O)N(c1ccc(C3(c4ccc(N5C(=O)c6cccc(*)c6C5=O)c(C)c4)CCCCC3)cc1C)C2=O (repeat unit)
The glass transition temperature of the first is lower: 257.00 °C for the first, 302.50 ± 3.5 °C for the second.
